pIC50: −log10 of the molar value.
Tests used:
[1] = tested on: Raji; experiment: Antiproliferative activity against human Raji cells assessed as reduction in cell viability measured after 6 days by MTT assay; assay type: functional, cell-based; conditions: 144 h
[2] = tested on: Jurkat; experiment: Antiproliferative activity against human Jurkat cells assessed as reduction in cell viability measured after 6 days by MTT assay; assay type: functional, cell-based; conditions: 144 h
[3] = tested on: Raji; experiment: Potency index, ratio of doxorubicin IC50 to compound IC50 for human Raji cells; assay type: functional
[4] = tested on: HL-60; experiment: Antiproliferative activity against human HL-60 cells assessed as reduction in cell viability measured after 6 days by MTT assay; assay type: functional, cell-based; conditions: HL-60, 144 h
[5] = tested on: A549; experiment: Antiproliferative activity against human A549 cells assessed as reduction in cell viability measured after 6 days by MTT assay; assay type: functional, cell-based; conditions: A549, 144 h
[6] = tested on: MCF7; experiment: Antiproliferative activity against human MCF7 cells assessed as reduction in cell viability measured after 6 days by MTT assay; assay type: functional, cell-based; conditions: MCF7, 144 h
[7] = tested on: HeLa; experiment: Antiproliferative activity against human HeLa cells assessed as reduction in cell viability measured after 6 days by MTT assay; assay type: functional, cell-based; conditions: 144 h
[8] = tested on: MDA-MB-231; experiment: Antiproliferative activity against human MDA-MB-231 cells assessed as reduction in cell viability measured after 6 days by MTT assay; assay type: functional, cell-based; conditions: MDA-MB-231, 144 h
[9] = tested on: MRC5; experiment: Cytotoxicity against human MRC5 cells assessed as reduction in cell viability measured after 6 days by MTT assay; assay type: cell-based; conditions: MRC5, 144 h
[10] = tested on: K562; experiment: Antiproliferative activity against human K562 cells assessed as reduction in cell viability measured after 6 days by MTT assay; assay type: functional, cell-based; conditions: K562, 144 h
[11] = tested on: A549; experiment: Potency index, ratio of doxorubicin IC50 to compound IC50 for human A549 cells; assay type: functional
[12] = tested on: MDA-MB-231; experiment: Potency index, ratio of doxorubicin IC50 to compound IC50 for human MDA-MB-231 cells; assay type: functional

SMILES	pIC50 [1]	pIC50 [2]	pIC50 [4]	pIC50 [5]	pIC50 [6]	pIC50 [7]	pIC50 [8]	pIC50 [10]	Ratio IC50 [3]	pIC50 [9]	Ratio IC50 [11]	Ratio IC50 [12]
O=C1C=C[C@@H](OCc2ccccc2)[C@@H]([C@@H](CO)OCc2ccccc2)O1	8.00	4.91	4.99	4.89	4.75	5.32	5.32	5.85	298	< 4.00	–	–
COc1ccc(/C=C/C(=O)OC[C@@H](OC(C)=O)[C@H]2OC(=O)C=C[C@H]2OC(C)=O)cc1	5.00	5.59	5.00	5.85	5.03	5.23	4.64	5.16	–	4.11	–	–
COc1ccc(/C=C/C(=O)OC[C@@H](OCc2ccccc2)[C@H]2OC(=O)C=C[C@H]2OCc2ccccc2)cc1	6.16	4.99	5.80	5.37	5.95	5.97	5.49	6.37	–	< 4.00	–	–
O=C1CC2OCC(O)C(O1)C2O (stereo unspecified)	5.09	5.78	5.79	5.94	5.48	5.93	4.50	5.53	–	< 4.00	–	–
CC(=O)O[C@@H]1C=CC(=O)O[C@@H]1[C@@H](COC(=O)c1ccc(Cl)cc1)OC(C)=O	5.73	4.61	4.49	4.81	5.58	4.96	5.73	5.43	–	< 4.00	–	–
CO[C@H]1CC(=O)O[C@H]([C@@H](COC(=O)/C=C/c2ccc([N+](=O)[O-])cc2)OC(C)=O)[C@@H]1OC(C)=O	5.25	6.92	5.51	6.74	5.29	6.17	4.54	5.62	–	< 4.00	27	–
COc1cccc(C(=O)OC[C@@H](OC(=O)c2cccc(OC)c2)[C@H]2OC(=O)C=C[C@H]2OC(=O)c2cccc(OC)c2)c1	5.57	4.67	5.21	4.74	4.52	5.12	5.80	5.33	–	< 4.00	–	–
CC(=O)O[C@@H]1C=CC(=O)O[C@@H]1[C@@H](COC(=O)c1c(Cl)cc(Cl)cc1Cl)OC(C)=O	–	–	–	–	–	–	–	–	–	–	–	5
CC(=O)O[C@@H]1C=CC(=O)O[C@@H]1[C@@H](COC(=O)c1ccc([N+](=O)[O-])cc1)OC(C)=O	4.73	5.13	5.95	5.06	5.27	5.33	5.39	5.12	–	< 4.00	–	–
CC(=O)OC[C@@H](OCc1ccccc1)[C@H]1OC(=O)C=C[C@H]1OCc1ccccc1	5.74	4.83	5.03	4.82	4.72	5.27	5.19	6.06	–	< 4.00	–	–

More lines, in order of rising pIC50 [1], values ahead:

pIC50 [1]	pIC50 [2]	pIC50 [4]	pIC50 [5]	pIC50 [6]	pIC50 [7]	pIC50 [8]	pIC50 [10]	SMILES	Ratio IC50 [3]	pIC50 [9]	Ratio IC50 [11]	Ratio IC50 [12]
5.00	4.61	4.53	4.90	5.41	5.58	5.13	5.12	CC(=O)OC[C@@H](OC(C)=O)[C@H]1OC(=O)C=C[C@H]1OC(C)=O	–	< 4.00	–	–
5.56	6.24	5.39	5.65	5.85	5.74	5.16	5.63	CC(=O)O[C@@H]1C=CC(=O)O[C@@H]1[C@@H](COC(=O)/C=C/c1ccc([N+](=O)[O-])cc1)OC(C)=O	–	< 4.00	–	–
5.61	5.38	5.27	4.92	5.52	5.14	5.45	6.00	O=C1C=C[C@@H](OCc2ccccc2)[C@@H]([C@@H](COC(=O)/C=C/c2ccc(F)cc2)OCc2ccccc2)O1	–	< 4.00	–	–
5.64	5.27	5.72	5.67	5.37	5.77	4.46	5.46	CC(=O)O[C@@H]1C=CC(=O)O[C@@H]1[C@@H](COC(=O)/C=C/c1ccc(F)cc1)OC(C)=O	–	< 4.00	–	–
5.88	5.30	6.21	4.88	5.59	5.02	5.30	5.80	O=C1C=C[C@@H](OCc2ccccc2)[C@@H]([C@@H](COC(=O)/C=C/c2ccccc2)OCc2ccccc2)O1	–	< 4.00	–	–
5.97	4.33	5.08	4.67	5.63	4.81	4.28	5.49	O=C1C=C[C@@H](OC(=O)c2ccccc2)[C@@H]([C@@H](COC(=O)c2ccccc2)OC(=O)c2ccccc2)O1	–	< 4.00	–	–
6.22	5.97	5.46	5.20	6.68	5.09	6.80	5.09	O=C1CC2OCC(OCc3ccccc3)C(O1)C2OCc1ccccc1 (stereo unspecified)	–	< 4.00	–	–
6.85	5.24	5.60	5.28	5.78	5.58	5.81	5.90	O=C1C=C[C@@H](OCc2ccccc2)[C@@H]([C@@H](COC(=O)/C=C/c2ccc([N+](=O)[O-])cc2)OCc2ccccc2)O1	–	< 4.00	–	–
